The conditions of this series: Crystal; visual observation.

SMILES strings stand for the structures. ± gives the expanded uncertainty stated by the source.

As to `CC(C)NCC(O)COc1ccc(CC(N)=O)cc1` (configuration not stated) [2-(4-(2-hydroxy-3-(isopropylamino)propoxy)phenyl)acetamide], the Normal melting temperature stood at 154.50 ± 0.4 °C.
As for `CC(C)NCC(O)COc1cccc2ccccc12.Cl` (configuration not stated) [propranolol hydrochloride], the figure is 164.80 ± 0.4 °C.

The values are drawn from the NIST ThermoML archive (doi:10.1016/j.jct.2012.05.021).
